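Step 1: Grow cells in 96-well plates. Step 2: Expose to compound for 48 hours at 5 concentrations. Step 3: Interpolate endpoints linearly; if unreached, use highest concentration. Abbreviation: GI50, concentration required for 50% inhibition of growth.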 Calls of active or inactive are those of the source. Rule as the data show it: active = GI50 up to about 1.1 µM and inactive = higher.
Legend:
Assay in all cases: NCI anticancer screen, dose series, 48 h
A498 = system: A498
TK-10 = system: TK-10
DU-145 = system: DU-145
HT-29 = system: HT-29
786-0 = system: 786-0
IGROV-1 = system: IGROV-1
RXF 393 = system: RXF 393
NCI-H23 = system: NCI-H23
ACHN = system: ACHN
HCC 2998 = system: HCC 2998
UACC-62 = system: UACC-62
PC-3 = system: PC-3
SK-MEL-2 = system: SK-MEL-2
MDA-MB-435 = system: MDA-MB-435
RPMI-8226 = system: RPMI-8226
NCI-H522 = system: NCI-H522
A549 = system: A549
U-251 = system: U-251
SK-MEL-5 = system: SK-MEL-5
Malme-3M = system: Malme-3M

Measured: GI50

CN(C)c1ccc(/C(F)=C(F)/C(F)=C(F)/C(F)=C(\F)c2ccc(Br)cc2)cc1
inactive: A498 16.7 µM | TK-10 > 75.5 µM | DU-145 19.4 µM | HT-29 27.5 µM | 786-0 3.92 µM | IGROV-1 27.6 µM | RXF 393 9.2 µM | NCI-H23 14.8 µM | ACHN 52.8 µM | HCC 2998 18.2 µM | UACC-62 22.9 µM | PC-3 15.2 µM | SK-MEL-2 25.9 µM | MDA-MB-435 3.1 µM | RPMI-8226 32.7 µM | NCI-H522 7.46 µM | A549 31.5 µM | U-251 17.5 µM | SK-MEL-5 25.3 µM | Malme-3M 9.29 µM

N[C@@H]1c2c(Br)sc(Br)c2C(=O)[C@H]1Br
inactive: A498 35.2 µM | TK-10 > 100 µM | DU-145 > 60.3 µM | HT-29 21.7 µM | 786-0 23.1 µM | IGROV-1 20.6 µM | RXF 393 22.1 µM | NCI-H23 24.8 µM | ACHN 20.6 µM | HCC 2998 31.3 µM | UACC-62 20.5 µM | PC-3 37.2 µM | SK-MEL-2 > 100 µM | MDA-MB-435 23 µM | RPMI-8226 7.45 µM | NCI-H522 14.7 µM | A549 > 100 µM | U-251 22.7 µM | SK-MEL-5 2.6 µM | Malme-3M 21.7 µM

O=C(O)c1nc(-c2ccccc2)ncc1-c1nnnn1-c1ccccc1
inactive: A498 > 100 µM | TK-10 > 100 µM | DU-145 > 100 µM | HT-29 > 100 µM | 786-0 > 100 µM | IGROV-1 > 100 µM | RXF 393 > 100 µM | NCI-H23 > 100 µM | ACHN > 100 µM | HCC 2998 > 100 µM | UACC-62 > 100 µM | PC-3 > 100 µM | SK-MEL-2 > 100 µM | MDA-MB-435 > 100 µM | RPMI-8226 > 100 µM | NCI-H522 > 100 µM | A549 > 100 µM | U-251 > 100 µM | SK-MEL-5 > 100 µM | Malme-3M > 100 µM

Nc1cc(N)c(/N=N/c2cccc3c(S(=O)(=O)O)cccc23)cc1/N=N/c1cc([N+](=O)[O-])ccc1O
inactive: A498 27 µM | TK-10 47 µM | DU-145 30.3 µM | HT-29 43.8 µM | 786-0 42.1 µM | IGROV-1 15.6 µM | RXF 393 70.3 µM | NCI-H23 45 µM | ACHN 22.2 µM | HCC 2998 23.2 µM | UACC-62 22.3 µM | PC-3 18.5 µM | SK-MEL-2 22.4 µM | MDA-MB-435 35.6 µM | RPMI-8226 35.6 µM | NCI-H522 17.5 µM | A549 25.5 µM | U-251 13.7 µM | SK-MEL-5 17.6 µM | Malme-3M 17.3 µM
